The test system of the test is Botrytis cinerea (ATCC 90479). Description: Botrytis cinerea hyphal growth inhibition on PDA agar (colony diameter), adjuvant with or without pyraclostrobin. It counts as cell-based. As to conditions: for inherent fungicidal activity on their own: adjuvant alone, at any of the concentrations tested; for Fold Change in Growth Inhibition: adjuvant concentration 50 μg/mL (Ia-Ie) or 64 μg/mL (If, Ig), 48 hours at 22° C., relative to fungicide alone; for fold increase in fungicidal activity compared to pyraclostrobin alone: pyraclostrobin at 0.06 μg/mL, against B. cinerea. As to the method:
Percent Inhibition-The percent inhibition will be understood to represent the amount the fungicide and/or adjuvant that inhibits the visible growth of the microorganism after 48 hours incubation at 22° C. relative to vehicle treated controls. This is calculated using the following formula:
ØC=diameter of the colony grown on agar supplemented with vehicle (i.e. vehicle treated control), and
ØT=diameter of the colony grown on agar supplemented with fungicide and/or adjuvant formulated in an appropriate vehicle (i.e., solvent such as water C2H5OH, CH3OH, CH3CN, DMSO).
Fold Change—The fold change is a measure of the adjuvant/fungicide combination in inhibiting a microorganism compared to the fungicide alone. This indicates how the adjuvant performs relative to the fungicide alone. This is calculated using the following formula:
where: • INHAF=percent inhibition of fungal growth when treated with fungicide and adjuvant, and • INHF=percent inhibition of fungal growth when treated with fungicide alone.
Botrytis cinerea (ATCC 90479) was cultured on Difco Potato Dextrose Agar (PDA) for 7 days with diurnal UV cycles (12 h UV light and 12 h dark). Spores were harvested in a buffered, sterile saline solution (w/v: 0.9% NaCl with 1% Tween 80) and counted using a haemocytometer. The spore suspension was adjusted to a final concentration of 8.5x10^6 spores/mL to create a standardised inoculum.
To prepare hyphal fragments for adjuvant testing, 8.5x10^4 spores were used to inoculate 10 mL of Difco Potato Dextrose Broth in a 150×25 mm tube. The tube was incubated at 220 RPM, 22° C. for 48 hours.
To create hyphal fragments from the culture, the culture was transferred to a 50 mL plastic conical tube containing approximately 20 sterile 5 mm diameter glass beads and vortexed for 5 min. After vortexing the tube was allowed to stand for 5 min to allow large mycelial clumps to settle and then the top layer containing hyphal fragments was removed and used as inocula for growth inhibition assays.
Fungicides and adjuvants were dissolved in methanol and added to molten PDA (˜50° C.) and then the agar was distributed in the wells of 12 well multiwell plates (1 mL/well). The plates were cooled to room temperature and 10 μL of hyphal inoculum was added to the centre of each well. The plates were incubated at 22° C. for 48 hours and then the colony diameter was measured using a digital caliper. The biological growth control consisted of hyphae and vehicle (0.07% methanol), the negative control was media and vehicle (0.07% methanol).

[1] abbreviates: with Pyra (pyraclostrobin) 0.0313 μg/mL.
The mark [2] stands for this setting: with Pyra (pyraclostrobin) 0.0625 μg/mL.

SMILES strings stand for the structures.

Regarding `O=C1NC(Cc2ccccc2)C(=O)N2CCCC12` (centres unmarked) [DKP (Ia)], the “inherent fungicidal activity on their own” value (from here on “inherent fungicidal activity”) is listed as “did not demonstrate any inherent fungicidal activity”. For the same compound, the “Fold Change in Growth Inhibition” value under setting [1] is 1.32. Moreover, the “Fold Change in Growth Inhibition” value under setting [2] is reported as 1.15.
As for `O=C1CNC(=O)C(Cc2ccccc2)N1` (centres unmarked) [DKP (Ib)], the “inherent fungicidal activity” value is on record as “did not demonstrate any inherent fungicidal activity”. Besides, under setting [1], the “Fold Change in Growth Inhibition” value is 1.14. Under setting [2], the “Fold Change in Growth Inhibition” value came to 1.45.
Take `CN1C(=O)C2CCCN2C(=O)C1Cc1ccccc1` (centres unmarked) [DKP (Ic)]: the “inherent fungicidal activity” value is “did not demonstrate any inherent fungicidal activity” and the “fold increase in fungicidal activity compared to pyraclostrobin alone” value worked out at 1.52 fold. Besides, the “Fold Change in Growth Inhibition” value under setting [1] came to 1.23. Under setting [2], the “Fold Change in Growth Inhibition” value is reported as 1.52.
As to `CN1CC(=O)N(C)C(Cc2ccccc2)C1=O` (centres unmarked) [DKP (Id)], the “inherent fungicidal activity” value is “did not demonstrate any inherent fungicidal activity”. In addition, the “Fold Change in Growth Inhibition” value under setting [1] was 1.09. Also, the “Fold Change in Growth Inhibition” value under setting [2] is 1.35.
In the case of `O=C1NCC(=O)N2CCCC12` (centres unmarked) [DKP (Ie)], the “inherent fungicidal activity” value is “did not demonstrate any inherent fungicidal activity” and the “fold increase in fungicidal activity compared to pyraclostrobin alone” value was found to be 1.56 fold. In addition, the “Fold Change in Growth Inhibition” value under setting [1] is given as 0.96. Moreover, the “Fold Change in Growth Inhibition” value under setting [2] was determined as 1.56.
On to `O=C1NC(Cc2ccccc2)C(=O)N2CCCCC12` (centres unmarked) [DKP (If), cyclo (-Phe-Pip) diketopiperazine], for which the “inherent fungicidal activity” value is recorded as “did not demonstrate any inherent fungicidal activity”. The “Fold Change in Growth Inhibition” value under setting [1] was 1.34. Moreover, the “Fold Change in Growth Inhibition” value under setting [2] is 1.28.
The corresponding values for `O=C1NC(Cc2ccccc2)C(=O)N2CCC=C12` (centres unmarked) [DKP (Ig), cyclo (-Phe-dhPro) diketopiperazine] are “did not demonstrate any inherent fungicidal activity”, 1.22 and 1.27.

Source of the values: patent publication US20250134104A1, “AGROCHEMICAL ADJUVANTS” (Croda International Plc, priority 2022, published 2025).
